Patent US6964949B2, “Pharmaceutical compositions for promoting the growth of gram-positive bacilli and increasing the acidity in the vagina and the use thereof” (Shanghai Jiao Da Onlly Co., Ltd., priority 2000, dated 2005)

Key:
Format in all cases: cell-based
Gram-positive cocci [1] = test: Experiment Example 4: 17.0% maltose or sucrose, specimen culture, Gram smear; conditions: 17.0% saccharide, 1.0% yeast extract, 1.6% xanthan gum, pH 6.2, candle jar, 37° C.
Method: (§1) • (1)The preparation of the compositions: Maltose and sucrose were used respectively to prepare the following composition in the methods mentioned above: • A. 17.0% maltose, 1.0% yeast extract, 1.6% xanthan gum, pH adjusted to 6.2; • B. 17.0% sucrose, 1.0% yeast extract, 1.6% xanthan gum, pH adjusted to 6.2; • (2) The preparation of the test tubes: Compositions prepared above were filled into the test tubes, with each tube containing 5 ml, sterilized, and kept until use for experiment. • (3) Specimen suspension: Vaginal secretion was taken from one of the patients suffering from typical bacterial vaginosis with a cotton swab, then the swab was washed in 2 ml sterilized Trypcase-soy Broth immediately, and thus the specimen suspension was ready. […] Then the tubes were placed in a candle jar and cultivated at 37° C. After 24 hours and 48 hours' culture, culture samples were taken respectively from each of the tubes, then the Gram smears of the samples were observed and the pH values of culture samples were tested.

Gram-positive bacilli [2] = test: as above; conditions: 17.0% saccharide, 1.0% yeast extract, 1.6% xanthan gum, pH 6.2, candle jar, 37° C.
Method: as §1

Gram-negative cocci [3] = test: as above; conditions: 17.0% saccharide, 1.0% yeast extract, 1.6% xanthan gum, pH 6.2, candle jar, 37° C.
Method: as §1

Gram-negative bacilli [4] = test: as above; conditions: 17.0% saccharide, 1.0% yeast extract, 1.6% xanthan gum, pH 6.2, candle jar, 37° C.
Method: as §1

[5] = test system: vaginal secretion specimen of a patient suffering from typical bacterial vaginosis; test: Experiment Example 3: pH of culture samples (production of acids); conditions: 2.5% saccharide, 1.0% yeast extract, 1.6% xanthan gum, pH 6.2, candle jar, 37° C.
Method: as §1, with “• (1) The” for “• (1)The”, “composition according to” for “composition in”, “A. 2.5%” for “A. 17.0%”, “B. 2.5%” for “B. 17.0%”, “sucrose, 1.0” for “sucrose, 1.0%”, “Compositions as” for “Compositions”

Gram-positive cocci [6] = test: Experiment Example 2: comparison of saccharides, specimen culture, Gram smear; conditions: 10.0% saccharide, 1.0% yeast extract, 1.6% xanthan gum (dextrin 0.5%, starch none), pH 6.2, candle jar, 37° C.
Text: (§2) • (1)The preparation of the compositions: Different saccharides were used respectively to prepare the following compositions according to the methods mentioned above: glucose, fructose, galactose, mannose, maltose, sucrose, lactose, lactulose, mycose, cellobiose, melibiose, melitose, malto-oligosaccharide, isomaltooligosaccharide and fructooligosaccharide, dextrin, starch, and glycogen: • A. 5% glucose, 1.0% yeast extract, 1.6% xanthan gum, pH adjusted to 6.2; • B. 5% fructose, 1.0% yeast extract, 1.6% xanthan gum, pH adjusted to 6.2; • C. 5% galactose, 1.0% yeast extract, 1.6% xanthan gum, pH adjusted to 6.2; • D. 5% mannose, 1.0% yeast extract, 1.6% xanthan gum, pH adjusted to 6.2; • E. 10.0% maltose, 1.0% yeast extract, 1.6% xanthan gum, pH adjusted to 6.2; • F. 10.0% sucrose, 1.0% yeast extract, 1.6% xanthan gum, pH adjusted to 6.2; • G. 10.0% lactose, 1.0% yeast extract, 1.6% xanthan gum, pH adjusted to 6.2; • H. 10.0% lactulose, 1.0% yeast extract, 1.6% xanthan gum, pH adjusted to 6.2; • I. 10.0% cellobiose, 1.0% yeast extract, 1.6% xanthan gum, pH adjusted to 6.2; • J. 10.0% mycose, 1.0% yeast extract, 1.6% xanthan gum, pH adjusted to 6.2; • K. 10.0% melibiose, 1.0% yeast extract, 1.6% xanthan gum, pH adjusted to 6.2; • L. 10.0% melitose, 1.0% yeast extract, 1.6% xanthan gum, pH adjusted to 6.2; • M. 10.0% maltooligosaccharide, 1.0% yeast extract, 1.6% xanthan gum, pH adjusted to 6.2; • N. 10.0% isomaltooligosaccharide, 1.0% yeast extract, 1.6% xanthan gum, pH adjusted to 6.2; • O. 10.0% fructooligosaccharide, 1.0% yeast extract, 1.6% xanthan gum, pH adjusted to 6.2; • P. 10.0% dextrin, 1.0% yeast extract, 0.5% xanthan gum, pH adjusted to 6.2; • Q. 10.0% starch, 1.0% yeast extract, pH adjusted to 6.2; • R. 10.0% glycogen, 1.0% yeast extract, 1.6% xanthan gum, pH adjusted to 6.2. • (2)The preparation of the test tubes: The compositions prepared above were filled into test tubes, with each tube containing 5 ml, sterilized, and kept until use for experiment. • (3) Specimen suspension: Vaginal secretion was taken from one of the patients suffering from typical bacterial vagmosis with a cotton swab, then the swab was washed in 2 ml sterilized Trypcase-soy Broth immediately, and thus the specimen suspension was ready. […] Then the tubes were placed in a candle jar and cultivated at 37° C. After 24 hours and 48 hours' culture, culture samples were taken respectively from each of the tubes, then the Gram smears of the samples were observed and the pH values of culture samples were tested. […] Meanwhile the pH values in most of the composition tubes decreased to different levels. […] And maltose and sucrose exert better effect in promoting the growth of Gram-positive bacilli and the production of acids than that of the other kinds of oligosaccharides.

[7] = test system: vaginal secretion specimen of a patient suffering from typical bacterial vaginosis; test: Experiment Example 2: pH of culture samples (production of acids); conditions: for pH values in the tube compared with the other tubes: 10% saccharide tube, after 24 or 48 hours culture; for pH, 24 hours-culture / pH, 48 hours-culture: 10.0% saccharide, 1.0% yeast extract, 1.6% xanthan gum (dextrin 0.5%, starch none), pH 6.2, candle jar, 37° C.
Text: as §2

[8] = test system: vaginal secretion specimen of a patient suffering from typical bacterial vaginosis; test: Experiment Example 4: pH of culture samples (production of acids); conditions: 17.0% saccharide, 1.0% yeast extract, 1.6% xanthan gum, pH 6.2, candle jar, 37° C.
Method: as §1

Gram-positive cocci [9] = test: Experiment Example 3: 2.5% maltose or sucrose, specimen culture, Gram smear; conditions: 2.5% saccharide, 1.0% yeast extract, 1.6% xanthan gum, pH 6.2, candle jar, 37° C.
Method: as §1, with “• (1) The” for “• (1)The”, “composition according to” for “composition in”, “A. 2.5%” for “A. 17.0%”, “B. 2.5%” for “B. 17.0%”, “sucrose, 1.0” for “sucrose, 1.0%”, “Compositions as” for “Compositions”

Gram-positive bacilli [10] = test: as above; conditions: 2.5% saccharide, 1.0% yeast extract, 1.6% xanthan gum, pH 6.2, candle jar, 37° C.
Method: as §1, with “• (1) The” for “• (1)The”, “composition according to” for “composition in”, “A. 2.5%” for “A. 17.0%”, “B. 2.5%” for “B. 17.0%”, “sucrose, 1.0” for “sucrose, 1.0%”, “Compositions as” for “Compositions”

Gram-negative cocci [11] = test: as above; conditions: 2.5% saccharide, 1.0% yeast extract, 1.6% xanthan gum, pH 6.2, candle jar, 37° C.
Method: as §1, with “• (1) The” for “• (1)The”, “composition according to” for “composition in”, “A. 2.5%” for “A. 17.0%”, “B. 2.5%” for “B. 17.0%”, “sucrose, 1.0” for “sucrose, 1.0%”, “Compositions as” for “Compositions”

Gram-negative bacilli [12] = test: as above; conditions: 2.5% saccharide, 1.0% yeast extract, 1.6% xanthan gum, pH 6.2, candle jar, 37° C.
Method: as §1, with “• (1) The” for “• (1)The”, “composition according to” for “composition in”, “A. 2.5%” for “A. 17.0%”, “B. 2.5%” for “B. 17.0%”, “sucrose, 1.0” for “sucrose, 1.0%”, “Compositions as” for “Compositions”

SMILES	Bacteria G + c (Gram-positive cocci), 24 hours culture (Gram-positive cocci [1])	Bacteria G + c (Gram-positive cocci), 48 hours culture (Gram-positive cocci [1])	Bacteria G + b (Gram-positive bacilli), 24 hours culture (Gram-positive bacilli [2])	Bacteria G + b (Gram-positive bacilli), 48 hours culture (Gram-positive bacilli [2])	Bacteria G − c (Gram-negative cocci), 24 hours culture (Gram-negative cocci [3])	Bacteria G − c (Gram-negative cocci), 48 hours culture (Gram-negative cocci [3])	Bacteria G − b (Gram-negative bacilli), 48 hours culture (Gram-negative bacilli [4])	pH, 24 hours-culture [5]	pH, 48 hours-culture [5]	Bacteria G + c (Gram-positive cocci), 24 hours-culture (Gram-positive cocci [6])	Bacteria G + c (Gram-positive cocci), 48 hours-culture (Gram-positive cocci [6])	pH values in the tube compared with the other tubes [7]	pH, 24 hours-culture [7]	pH, 48 hours-culture [7]	pH, 24 hours culture [8]	pH, 48 hours culture [8]	Bacteria G + c (Gram-positive cocci), 24 hours-culture (Gram-positive cocci [9])	Bacteria G + c (Gram-positive cocci), 48 hours-culture (Gram-positive cocci [9])	Bacteria G + b (Gram-positive bacilli), 24 hours-culture (Gram-positive bacilli [10])	Bacteria G + b (Gram-positive bacilli), 48 hours-culture (Gram-positive bacilli [10])	also measured
OC[C@H]1O[C@H](O[C@H]2[C@H](O)[C@@H](O)[C@H](O)O[C@@H]2CO)[C@H](O)[C@@H](O)[C@@H]1O [Maltose, maltose]	G + c, + (1-9 bacteria per field of vision under oil-immersion lens)	G + c, ++ (About 10-99 bacteria per field of vision under oil-immersion lens)	G + b, +++ (About 100 bacteria or more per field vision under oil-immersion lens, even uncountable)	G + b, ++ (About 10-99 bacteria per field of vision under oil-immersion lens)	G − c, − (No or less than one bacterium per field of version under oil-immersion lens)	G − c, − (No or less than one bacterium per field of version under oil-immersion lens)	G − b, ++ (About 10-99 bacteria per field of vision under oil-immersion lens)	7.0	6.4	G + c, ++ (About 10-99 bacteria per field of vision under oil-immersion lens)	G + c, + (1-9 bacteria per field of vision under oil-immersion lens)	lower than that of the other tubes	4.6-48	4.4-4.6	5.4	5.1	G + c, − (No or less than one bacterium per field of version under oil-immersion lens)	G + c, + (1-9 bacteria per field of vision under oil-immersion lens)	G + b, + (1-9 bacteria per field of vision under oil-immersion lens)	G + b, +++ (About 100 bacteria or more per field vision under oil-immersion lens, even uncountable)	Bacteria G − b (Gram-negative bacilli), 24 hours culture (Gram-negative bacilli [4]; 24 hours): G − b, + (1-9 bacteria per field of vision under oil-immersion lens); Bacteria G − c (Gram-negative cocci), 24 hours-culture (Gram-negative cocci [11]): G − c, − (No or less than one bacterium per field of version under oil-immersion lens); Bacteria G − c (Gram-negative cocci), 48 hours-culture (Gram-negative cocci [11]): G − c, − (No or less than one bacterium per field of version under oil-immersion lens); Bacteria G − b (Gram-negative bacilli), 24 hours-culture (Gram-negative bacilli [12]): G − b, +++ (About 100 bacteria or more per field vision under oil-immersion lens, even uncountable); Bacteria G − b (Gram-negative bacilli), 48 hours-culture (Gram-negative bacilli [12]): G − b, + (1-9 bacteria per field of vision under oil-immersion lens)
OC[C@H]1O[C@@](CO)(O[C@H]2O[C@H](CO)[C@@H](O)[C@H](O)[C@H]2O)[C@@H](O)[C@@H]1O [Sucrose, sucrose]	G + c, + (1-9 bacteria per field of vision under oil-immersion lens)	G + c, ++ (About 10-99 bacteria per field of vision under oil-immersion lens)	G + b, ++ (About 10-99 bacteria per field of vision under oil-immersion lens)	G + b, ++ (About 10-99 bacteria per field of vision under oil-immersion lens)	G − c, − (No or less than one bacterium per field of version under oil-immersion lens)	G − c, − (No or less than one bacterium per field of version under oil-immersion lens)	G − b, ++ (About 10-99 bacteria per field of vision under oil-immersion lens)	6.2	6.7	G + c, + (1-9 bacteria per field of vision under oil-immersion lens)	G + c, + (1-9 bacteria per field of vision under oil-immersion lens)	lower than that of the other tubes	4.8-5.1	4.6-4.8	6.2	5.4	G + c, + (1-9 bacteria per field of vision under oil-immersion lens)	G + c, + (1-9 bacteria per field of vision under oil-immersion lens)	G + b, + (1-9 bacteria per field of vision under oil-immersion lens)	G + b, + (1-9 bacteria per field of vision under oil-immersion lens)	Bacteria G − c (Gram-negative cocci), 24 hours-culture (Gram-negative cocci [11]): G − c, − (No or less than one bacterium per field of version under oil-immersion lens); Bacteria G − c (Gram-negative cocci), 48 hours-culture (Gram-negative cocci [11]): G − c, − (No or less than one bacterium per field of version under oil-immersion lens); Bacteria G − b (Gram-negative bacilli), 24 hours-culture (Gram-negative bacilli [12]): G − b, + (1-9 bacteria per field of vision under oil-immersion lens); Bacteria G − b (Gram-negative bacilli), 48 hours-culture (Gram-negative bacilli [12]): G − b, ++ (About 10-99 bacteria per field of vision under oil-immersion lens)
